# Read-outs that look alike come from different tables or passages of the source.
# How the values were obtained:
# [1] = molecular target: T1, VEGF-R (vascular endothelial growth factor receptor-2) (Rattus norvegicus, UniProt O08775); assay: VEGF-R Screening Assay; format: biochemical; settings: read-out: VEGF-R IC50
# T1 construct: polyhistidine (6xHIS) (N)
# A375 malignant melanoma = assay: Inhibition of Cell Proliferation (14C-thymidine incorporation), A375; format: cell-based; settings: Homo sapiens, A-375, A375 cell line
# Method in brief: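 3000-8000 cells/well, 24 h preculture; cmpd in DMSO 24 h; + 0.2 uCi/well methyl 14C-thymidine (56 mCi/mmol) 24 h with drug; 37° C, 5% CO2; PBS wash x2; scintillation count of label incorporated; DMSO controls.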
# [2] = system: PC-3 prostate adenocarcinoma; assay: Inhibition of Cell Proliferation (14C-thymidine incorporation), PC-3; format: cell-based; settings: Homo sapiens, PC-3 cell line
# Experimental: The ability of a test compound to inhibit the proliferation of cell growth was determined by measuring incorporation of ^14C-labelled thymidine into newly synthesized DNA within the cells. This method was used on cell lines derived from carcinomas originating from several tissues such as HeLa cervical adenocarcinoma (American Type Culture Collection (ATCC), Virginia, Cat. #CCL-2), A375 malignant melanoma (ATCC CRL-1619), SK-OV-3 ovarian adenocarcinoma (ATCC HTB-77) HCT-116 colon carcinoma (CCL-247), PC-3 prostate adenocarcinoma (ATCC CRL-1435), and MDA-MB-231 (Xenogen Corp.) In this way the effect of a compound on cell growth of cells with many different phenotypes can be determined. Cells were trypsinized and counted and 3000-8000 cells were added to each well of a 96-well CytoStar tissue culture treated scintillating microplate (Amersham #RPNQ0160) in complete medium in a volume of 100 μl. Cells were incubated for 24 hours in complete medium at 37° C. in an atmosphere containing 5% CO2. Next, 1 μl of test compound in 100% DMSO was added to the wells of the plate. DMSO only was added to control wells. Cells were incubated for 24 more hours in complete medium at 37° C. in an atmosphere containing 5% CO2. Methyl ^14C-thymidine 56 mCi/mmol (NEN #NEC568 or Amersham #CFA532) was diluted in complete medium and 0.2 uCi/well was added to each well of the CytoStar plate in a volume of 20 μl. The plate was incubated for 24 hours at 37° C. plus 5% CO2 in drug plus ^14C-thymidine. The contents of the plate were discarded into a ^14C radioactive waste container by inverting the plate and the plate was washed twice with 200 μl PBS. 200 μl of PBS is added to each well. The top of the plate was sealed with a transparent plate sealer and a white plate backing sealer (Packard #6005199) was applied to the bottom of the plate. The degree of methyl ^14C-thymidine incorporation was quantified on a Packard Top Count.
# [3] = molecular target: T2, HER2 (human epidermal growth factor receptor-2) (Homo sapiens, UniProt P04626); assay: Kinase Selectivity Assay HER2; format: biochemical
# T2 construct: begins at amino acid 676 followed by the remainder of the HER2 cytoplasmic domain; polyhistidine (N)
# T2 sequence (P04626 676-1255 limits assumed): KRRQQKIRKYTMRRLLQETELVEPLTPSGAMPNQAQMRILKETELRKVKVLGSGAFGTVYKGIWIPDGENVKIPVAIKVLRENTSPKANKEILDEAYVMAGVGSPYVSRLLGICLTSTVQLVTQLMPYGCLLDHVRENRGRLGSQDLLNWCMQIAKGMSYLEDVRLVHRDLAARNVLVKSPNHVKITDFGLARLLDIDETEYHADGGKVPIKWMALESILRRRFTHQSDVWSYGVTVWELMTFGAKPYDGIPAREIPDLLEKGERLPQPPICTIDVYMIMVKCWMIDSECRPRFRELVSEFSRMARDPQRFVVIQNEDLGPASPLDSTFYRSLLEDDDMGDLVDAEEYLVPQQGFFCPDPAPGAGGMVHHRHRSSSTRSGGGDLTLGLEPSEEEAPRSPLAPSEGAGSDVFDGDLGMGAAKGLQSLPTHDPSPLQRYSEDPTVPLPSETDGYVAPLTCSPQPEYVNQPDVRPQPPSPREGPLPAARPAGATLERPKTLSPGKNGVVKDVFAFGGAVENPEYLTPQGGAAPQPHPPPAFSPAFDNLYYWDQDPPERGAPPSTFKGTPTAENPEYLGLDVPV
# Method in brief: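 Inhibition was measured as reduced ^33P-γ-ATP labelling of a biotinylated peptide substrate immobilized on streptavidin plates after one hour at 30° C.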
# [4] = Kinase Selectivity, Tables 2a-2k
# [5] = Kinase Selectivity, Tables 2a-2k, read-out: HER2 Kinase IC50
# T1 sequence (O08775 786-1343): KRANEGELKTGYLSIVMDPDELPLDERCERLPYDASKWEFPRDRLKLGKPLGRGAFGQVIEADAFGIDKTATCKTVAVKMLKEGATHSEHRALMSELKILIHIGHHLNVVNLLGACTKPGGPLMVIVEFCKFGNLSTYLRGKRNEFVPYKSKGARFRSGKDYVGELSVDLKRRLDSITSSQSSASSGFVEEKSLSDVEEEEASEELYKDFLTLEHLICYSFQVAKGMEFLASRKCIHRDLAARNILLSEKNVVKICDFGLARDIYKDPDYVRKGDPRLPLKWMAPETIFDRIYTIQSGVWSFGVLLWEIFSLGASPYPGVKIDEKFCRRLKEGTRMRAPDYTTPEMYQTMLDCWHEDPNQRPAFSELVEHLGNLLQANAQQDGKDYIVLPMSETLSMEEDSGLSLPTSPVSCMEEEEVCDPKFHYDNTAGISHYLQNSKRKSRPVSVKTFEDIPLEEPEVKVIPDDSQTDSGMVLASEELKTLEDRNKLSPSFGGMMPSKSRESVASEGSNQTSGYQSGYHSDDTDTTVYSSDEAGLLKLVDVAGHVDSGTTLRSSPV
Compound,"IC50 [1, 4]",IC50 ([1]; Table 1),IC50 (A375 malignant melanoma),IC50 [2],"IC50 [3, 5]","IC50 ([3]; Table 1, read-out: HER2 IC50)"
"Nc1nc(Nc2ccc(S(N)(=O)=O)cc2)nn1C(=O)c1sccc1F [Cpd 16, 4-[[5-amino-1-[(3-fluoro-2-thienyl)carbonyl]-1H-1,2,4-triazol-3-yl]amino]-benzenesulfonamide]",13.7 nM,13.7 nM,942 nM,368 nM,,
"Nc1nc(Nc2ccc(S(N)(=O)=O)cc2)nn1C(=O)c1c(F)cccc1F [Cpd 1, 4-[[5-amino-1-(2,6-difluorobenzoyl)-1H-1,2,4-triazol-3-yl]amino]-benzenesulfonamide]",,,447 nM,119 nM,,
"CC(O)c1ccc(F)c(C(=O)n2nc(Nc3ccc(S(N)(=O)=O)cc3)nc2N)c1F (stereo not drawn) [Cpd 58, 4-[[5-amino-1-[2,6-difluoro-3-(1-hydroxyethyl)benzoyl]-1H-1,2,4-triazol-3-yl]amino]-benzenesulfonamide]",419 nM,420 nM,981 nM,362 nM,654 nM,650 nM
"CC(C)(C)c1ccc(C(=O)n2nc(Nc3ccc(S(N)(=O)=O)cc3)nc2N)s1 [Cpd 51, 4-[[5-amino-1-[[5-(1,1-dimethylethyl)-2-thienyl]carbonyl]-1H-1,2,4-triazol-3-yl]amino]-benzenesulfonamide]",19 nM,19 nM,333 nM,57 nM,31 nM,31 nM
"CN1CCN(c2ccc(Nc3nc(N)n(C(=O)c4c(F)cccc4F)n3)cc2)CC1 [Cpd 71, 1-(2,6-difluorobenzoyl)-N^3-[4-(4-methyl-1-piperazinyl)phenyl]-1H-1,2,4-triazole-3,5-diamine]",430 nM,430 nM,,25 nM,1300 nM,1300 nM
"Nc1nc(Nc2ccc(S(N)(=O)=O)cc2)nn1C(=O)c1ccsc1 [Cpd 30, 4-[[5-amino-1-(3-thienylcarbonyl)-1H-1,2,4-triazol-3-yl]amino]-benzenesulfonamide]",40.6 nM,40.6 nM,8240 nM,951 nM,,
"Nc1nc(Nc2ccc(S(N)(=O)=O)cc2)nn1C(=O)C1CCCCC1 [Cpd 39, 4-[[5-amino-1-(cyclohexylcarbonyl)-1H-1,2,4-triazol-3-yl]amino]-benzenesulfonamide]",,,,625 nM,,
"Cc1ccc(F)c(C(=O)n2nc(Nc3ccc(S(N)(=O)=O)cc3)nc2N)c1Cl [Cpd 69, 4-[[5-amino-1-(2-chloro-6-fluoro-3-methylbenzoyl)-1H-1,2,4-triazol-3-yl]amino]-benzenesulfonamide]",,,441 nM,8 nM,,
"Nc1nc(Nc2ccc(S(=O)(=O)N3CCCCC3)cc2)nn1C(=O)c1cccs1 [Cpd 23, N^3-[4-(1-piperidinylsulfonyl)phenyl]-1-(2-thienylcarbonyl)-1H-1,2,4-triazole-3,5-diamine]",35 nM,35.3 nM,424 nM,859 nM,,
"CCc1ccc(C(=O)n2nc(Nc3ccc(S(N)(=O)=O)cc3)nc2N)s1 [Cpd 32, 4-[[5-amino-1-[(5-ethyl-2-thienyl)carbonyl]-1H-1,2,4-triazol-3-yl]amino]-benzenesulfonamide]",22 nM,21.9 nM,,30 nM,9 nM,
"Nc1nc(Nc2ccc(S(N)(=O)=O)cc2)nn1C(=O)c1sccc1Cl [Cpd 17, 4-[[5-amino-1-[(3-chloro-2-thienyl)carbonyl]-1H-1,2,4-triazol-3-yl]amino]-benzenesulfonamide]",27 nM,27 nM,4970 nM,294 nM,,
"CNS(=O)(=O)c1ccc(Nc2nc(N)n(C(=O)c3c(F)ccc(C)c3F)n2)cc1 [Cpd 81, 4-[[5-amino-1-(2,6-difluoro-3-methylbenzoyl)-1H-1,2,4-triazol-3-yl]amino]-N-methyl-benzenesulfonamide]",,,1770 nM,25 nM,,
"Nc1nc(Nc2ccc(S(N)(=O)=O)cc2)nn1C(=O)c1c(F)cccc1Cl [Cpd 70, 4-[[5-amino-1-(2-chloro-6-fluorobenzoyl)-1H-1,2,4-triazol-3-yl]amino]-benzenesulfonamide]",,,1100 nM,11 nM,1230 nM,1230 nM
"Nc1nc(Nc2ccc(S(N)(=O)=O)cc2)nn1C(=O)c1sccc1Br [Cpd 35, 4-[[5-amino-1-[(3-bromo-2-thienyl)carbonyl]-1H-1,2,4-triazol-3-yl]amino]-benzenesulfonamide]",,46.3 nM,,231 nM,,
"Nc1nc(Nc2ccc(S(N)(=O)=O)cc2)nn1C(=O)c1cccs1 [Cpd 14, 4-[[5-amino-1-(2-thienylcarbonyl)-1H-1,2,4-triazol-3-yl]amino]-benzenesulfonamide]",26 nM,26.7 nM,26500 nM,157 nM,,
"CNS(=O)(=O)c1ccc(Nc2nc(N)n(C(=O)c3c(F)cccc3F)n2)cc1 [Cpd 80, 4-[[5-amino-1-(2,6-difluorobenzoyl)-1H-1,2,4-triazol-3-yl]amino]-N-methyl-benzenesulfonamide]",,935 nM,,272 nM,,1120 nM

# From patent US6924302B2, “Substituted triazole diamine derivatives as kinase inhibitors” (Ortho McNeil Pharmaceutical, Inc., priority 2000, dated 2005)
